Data on 17 compounds can be found in publication PMC7504677, “Impact of N-Alkylamino Substituents on Serotonin Receptor (5-HTR) Affinity and Phosphodiesterase 10A (PDE10A) Inhibition of Isoindole-1,3-dione Derivatives” (Molecules, 2020).

Structures are written as SMILES.

Data set [1] has as its target PDE10A (Homo sapiens, UniProt Q9Y233). The data set is described as follows: luminescence PDE inhibition assay (PDElight HTS cAMP phosphodiesterase assay kit). Conditions: for inhibition at 3 µM / inhibition at 10 µM: 1 h, percentage of inhibition respective to vehicle control (DMSO); for IC50: SEM of three independent experiments performed in duplicate. The data set is classed as biochemical. Here is the method: Test and reference compounds were dissolved in dimethyl sulfoxide (DMSO) at a concentration of 1 mM and further diluted in assay buffer in order to obtain the final concentration of compounds: 10 µM and 3 µM, respectively. All reactions were carried out at 37 °C in white, half-area 96-well plates (Perkin Elmer, Waltham, MA, USA). The inhibition of PDE 10A enzyme was measured using the PDElight HTS cAMP phosphodiesterase assay kit (Lonza) according to the manufacturer’s recommendations. 2.5 U of PDE 10A enzyme was preincubated either with DMSO (vehicle control) or compound for 20 min before incubation with the substrate, cAMP (final concentration 1.25 µM), for 1 h. Then, PDELight AMP Detection Reagent was added. After 10 min incubation, the luminescence was measured in a multifunction plate reader (POLARstar Omega, BMG Labtech, Ortenberg, Germany).

Data set [2] concerns the target T1, 5-HT1A receptor (Homo sapiens, UniProt P08908).
T1 sequence (P08908 1-422): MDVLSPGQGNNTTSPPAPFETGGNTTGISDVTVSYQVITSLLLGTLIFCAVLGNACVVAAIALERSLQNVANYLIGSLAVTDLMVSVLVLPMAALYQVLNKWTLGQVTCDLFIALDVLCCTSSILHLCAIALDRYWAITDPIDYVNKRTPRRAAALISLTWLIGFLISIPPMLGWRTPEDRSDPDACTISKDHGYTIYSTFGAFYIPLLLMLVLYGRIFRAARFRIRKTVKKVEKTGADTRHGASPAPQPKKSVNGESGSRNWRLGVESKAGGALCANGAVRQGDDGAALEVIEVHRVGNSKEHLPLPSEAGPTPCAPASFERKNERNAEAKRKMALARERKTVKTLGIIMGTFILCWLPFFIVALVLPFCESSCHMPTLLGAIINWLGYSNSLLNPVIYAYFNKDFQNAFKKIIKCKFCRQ
In words: radioligand binding assay, [3H]8-OH-DPAT. Conditions: read-out: 5-HT1A 1 µM ± SEM (% of control specific binding). Here is the method:
(§1) Briefly: binding experiments were conducted in 96-well microplates in a total final volume of 250 μL of appropriate buffers. Reaction mix included 50 μL solution of test compound, 50 μL of radioligand ([^3H]8-OH-DPAT for 5-HT1A, and [^3H]-LSD for 5-HT7, respectively) and 150 μL of diluted membranes (see description and Table S2 in Supporting Materials). Specific assay conditions for each receptor are described elsewhere. The radioactivity was measured in a MicroBeta2 scintillation counter (PerkinElmer, USA). Each compound was tested in the assay as duplicate samples at 1 µM final concentrations. Results were expressed as percent inhibition of specific binding.

The target in data set [3] is 5-HT7 receptor (Homo sapiens, UniProt P34969). In words: radioligand binding assay, [3H]-LSD. Conditions: read-out: 5-HT7 1 µM ± SEM (% of control specific binding). Here is the method:
as §1

The melting point is the temperature of the solid-liquid transition. What is called IC50 is the concentration that inhibits the measured activity by half. High values mean weaker potency in that assay, low ones greater potency in that assay.

Chain of PDE10A (Q9Y233 whole entry, species assumed): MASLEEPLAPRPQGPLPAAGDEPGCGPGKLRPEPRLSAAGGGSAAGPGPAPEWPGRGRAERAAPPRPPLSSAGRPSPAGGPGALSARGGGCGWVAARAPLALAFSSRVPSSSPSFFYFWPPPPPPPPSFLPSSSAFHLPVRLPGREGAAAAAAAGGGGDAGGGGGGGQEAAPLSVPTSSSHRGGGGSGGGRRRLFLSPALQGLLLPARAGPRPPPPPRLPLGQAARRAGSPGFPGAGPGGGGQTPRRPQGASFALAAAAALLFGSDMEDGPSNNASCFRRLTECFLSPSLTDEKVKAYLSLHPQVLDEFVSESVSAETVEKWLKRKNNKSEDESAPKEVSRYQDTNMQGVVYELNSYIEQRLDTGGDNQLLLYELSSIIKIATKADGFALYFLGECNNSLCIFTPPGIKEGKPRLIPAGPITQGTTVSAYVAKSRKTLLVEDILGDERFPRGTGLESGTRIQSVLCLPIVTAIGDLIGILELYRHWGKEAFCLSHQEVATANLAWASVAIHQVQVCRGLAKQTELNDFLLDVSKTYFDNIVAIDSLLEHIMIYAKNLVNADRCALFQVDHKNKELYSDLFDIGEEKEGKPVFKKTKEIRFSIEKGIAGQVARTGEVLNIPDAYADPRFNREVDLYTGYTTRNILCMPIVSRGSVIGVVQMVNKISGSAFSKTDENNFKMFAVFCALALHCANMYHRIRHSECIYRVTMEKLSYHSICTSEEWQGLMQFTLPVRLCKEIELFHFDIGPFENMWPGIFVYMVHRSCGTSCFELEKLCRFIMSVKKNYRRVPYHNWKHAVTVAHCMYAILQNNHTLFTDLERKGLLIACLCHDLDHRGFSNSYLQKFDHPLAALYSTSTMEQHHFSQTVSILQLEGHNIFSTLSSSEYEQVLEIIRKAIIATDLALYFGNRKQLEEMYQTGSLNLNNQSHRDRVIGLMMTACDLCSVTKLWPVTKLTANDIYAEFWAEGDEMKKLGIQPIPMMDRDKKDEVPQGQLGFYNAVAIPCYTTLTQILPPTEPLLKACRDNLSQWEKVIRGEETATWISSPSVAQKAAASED
Chain of 5-HT7 receptor (P34969 whole entry): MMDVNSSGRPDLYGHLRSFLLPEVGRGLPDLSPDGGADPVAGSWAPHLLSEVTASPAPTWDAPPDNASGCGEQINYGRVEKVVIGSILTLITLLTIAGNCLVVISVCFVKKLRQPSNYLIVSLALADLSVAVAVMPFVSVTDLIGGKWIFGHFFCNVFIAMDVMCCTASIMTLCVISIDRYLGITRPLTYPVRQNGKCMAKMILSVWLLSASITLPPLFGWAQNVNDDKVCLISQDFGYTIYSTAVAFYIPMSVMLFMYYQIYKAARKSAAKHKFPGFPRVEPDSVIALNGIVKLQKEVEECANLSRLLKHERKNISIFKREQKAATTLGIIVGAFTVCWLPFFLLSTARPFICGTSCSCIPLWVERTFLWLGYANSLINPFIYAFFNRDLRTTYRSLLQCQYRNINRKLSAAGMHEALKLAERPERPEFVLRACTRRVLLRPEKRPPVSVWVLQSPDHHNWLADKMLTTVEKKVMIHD

In turn, `COc1cc2c(cc1OC)CN(CCN1C(=O)c3cccc(OC)c3C1=O)CC2` [Compound 3, 2-[2-(6,7-Dimethoxy-3,4-dihydroisoquinolin-2(1H)-yl)ethyl]-4-methoxy-1H-isoindole-1,3(2H)-dione] returned a melting point of 108 to 109 °C. In data set [1], this compound yielded an inhibition at 3 µM of 0% and an inhibition at 10 µM of 0%. The inhibition at 1 µM in data set [2] was found to be 27 ± 3%. For the same compound, the inhibition at 1 µM in data set [3] came out at 0%.

The compound `COc1cccc2c1C(=O)N(CCN1CCc3ccccc3C1)C2=O` [Compound 4, 2-[2-(3,4-Dihydroisoquinolin-2(1H)-yl)ethyl]-4-methoxy-1H-isoindole-1,3(2H)-dione] displayed a melting point of 157 to 158 °C. In data set [1], this compound displayed an inhibition at 3 µM of 0% and an inhibition at 10 µM of 0%. Further, the inhibition at 1 µM in data set [2] is 12 ± 4%. In data set [3], the inhibition at 1 µM was found to be 0%.

In the case of `COc1cccc2c1C(=O)N(CCN1CCC3CCCCC3C1)C2=O` (stereo not shown) [Compound 5, 2-[2-(Octahydroisoquinolin-2(1H)-yl)ethyl]-4-methoxy-1H-isoindole-1,3(2H)-dione], the melting point is 145 to 146 °C. In data set [1], this compound had an inhibition at 3 µM of 0% and an inhibition at 10 µM of 0%. Further, the inhibition at 1 µM in data set [2] amounted to 25 ± 3%. In addition, the inhibition at 1 µM in data set [3] turned out to be 0%.

On to `COc1cc2c(cc1OC)CN(CCCN1C(=O)c3cccc(OC)c3C1=O)CC2` [Compound 6, 2-[3-(6,7-Dimethoxy-3,4-dihydroisoquinolin-2(1H)-yl)propyl]-4-methoxy-1H-isoindole-1,3(2H)-dione], for which the melting point was 107 to 109 °C. In data set [1], this compound gave an inhibition at 3 µM of 0% and an inhibition at 10 µM of 0%. In addition, the inhibition at 1 µM in data set [2] was 32 ± 4%. In data set [3], the inhibition at 1 µM is 0%.

Consider `COc1cccc2c1C(=O)N(CCCN1CCc3ccccc3C1)C2=O` [Compound 7, 2-[3-(3,4-Dihydroisoquinolin-2(1H)-yl)propyl]-4-methoxy-1H-isoindole-1,3(2H)-dione], for which the melting point lay in the range of 92 to 93 °C. In addition, in data set [1], the inhibition at 3 µM was 18% and the inhibition at 10 µM was determined as 19%. For the same compound, in data set [2], the inhibition at 1 µM worked out at 33 ± 2%. The inhibition at 1 µM in data set [3] came to 51 ± 2%.

Compound `COc1cccc2c1C(=O)N(CCCN1CCC3CCCCC3C1)C2=O` (stereo not shown) [Compound 8, 2-[3-(Octahydroisoquinolin-2(1H)-yl)propyl]-4-methoxy-1H-isoindole-1,3(2H)-dione] gave a melting point of 103 to 104 °C. Besides, in data set [1], the inhibition at 3 µM is 7% and the inhibition at 10 µM turned out to be 7%. In addition, the inhibition at 1 µM in data set [2] stood at 28 ± 3%. In data set [3], the inhibition at 1 µM was determined as 0%.

`COc1cccc2c1C(=O)N(Cc1ccccc1)C2=O` [Compound 9, 2-Benzyl-4-methoxy-1H-isoindole-1,3(2H)-dione] displayed a melting point of 167 to 168 °C. In addition, in data set [1], the inhibition at 3 µM amounted to 0% and the inhibition at 10 µM came out at 0%. Also, in data set [2], the inhibition at 1 µM turned out to be 6 ± 2%. For the same compound, in data set [3], the inhibition at 1 µM worked out at 0%.

For the compound `COc1cccc2c1C(=O)N(Cc1ccccn1)C2=O` [Compound 10, 4-Methoxy-2-(pyridin-2-ylmethyl)-1H-isoindole-1,3(2H)-dione], the melting point lay within 144 to 145 °C. In data set [1], the inhibition at 3 µM was 0% and the inhibition at 10 µM was found to be 0%. The inhibition at 1 µM in data set [2] is 10 ± 1%. Besides, the inhibition at 1 µM in data set [3] came to 0%.

In the case of `COc1cccc2c1C(=O)N(Cc1nc3ccccc3[nH]1)C2=O` [Compound 11, 2-(1H-Benzimidazol-2-ylmethyl)-4-methoxy-1H-isoindole-1,3(2H)-dione], the melting point lay within 239 to 240 °C. In data set [1], this compound yielded an inhibition at 3 µM of 7% and an inhibition at 10 µM of 15%. Besides, the inhibition at 1 µM in data set [2] was 39 ± 3%. Further, in data set [3], the inhibition at 1 µM stood at 0%.

Compound `COc1cccc2c1C(=O)N(CCc1ccccc1)C2=O` [Compound 12, 4-Methoxy-2-(2-phenylethyl)-1H-isoindole-1,3(2H)-dione] had a melting point of 123 to 124 °C. In data set [1], the inhibition at 3 µM stood at 5% and the inhibition at 10 µM was determined as 10%. Moreover, the inhibition at 1 µM in data set [2] turned out to be 13 ± 2%. Also, the inhibition at 1 µM in data set [3] worked out at 0%.

`COc1cccc2c1C(=O)N(CCc1ccccn1)C2=O` [Compound 13, 4-Methoxy-2-[2-(pyridin-2-yl)ethyl]-1H-isoindole-1,3(2H)-dione] returned a melting point of 155 to 157 °C. Also, in data set [1], the inhibition at 3 µM was 0% and the inhibition at 10 µM stood at 0%. The inhibition at 1 µM in data set [2] came to 59 ± 4%. In addition, in data set [3], the inhibition at 1 µM was found to be 0%.

In turn, `COc1cccc2c1C(=O)N(CCc1c[nH]cn1)C2=O` [Compound 14, 2-[2-(1H-Imidazol-4-yl)ethyl]-4-methoxy-1H-isoindole-1,3(2H)-dione] gave a melting point of 227 to 228 °C. In addition, in data set [1], the inhibition at 3 µM was 0% and the inhibition at 10 µM came to 0%. For the same compound, in data set [2], the inhibition at 1 µM worked out at 21 ± 1%. For the same compound, in data set [3], the inhibition at 1 µM was 0%.

`COc1cccc2c1C(=O)N(CCc1nc3ccccc3[nH]1)C2=O` [Compound 15, 2-[2-(1H-Benzimidazol-2-yl)ethyl]-4-methoxy-1H-isoindole-1,3(2H)-dione] had a melting point of 197 to 198 °C. In data set [1], this compound yielded an inhibition at 3 µM of 40%, an inhibition at 10 µM of 70% and a concentration for half-maximal inhibition (IC50) of 6.71 ± 0.195 µM. For the same compound, the inhibition at 1 µM in data set [2] stood at 44 ± 5%. The inhibition at 1 µM in data set [3] came out at 0%.

Turning to `COc1cccc2c1C(=O)N(CCCc1ccccc1)C2=O` [Compound 16, 4-Methoxy-2-(3-phenylpropyl)-1H-isoindole-1,3(2H)-dione], the melting point was 94 to 95 °C. Moreover, in data set [1], the inhibition at 3 µM stood at 11% and the inhibition at 10 µM is 13%. Besides, the inhibition at 1 µM in data set [2] is 32 ± 3%. Further, the inhibition at 1 µM in data set [3] is 14%.

The compound `COc1cccc2c1C(=O)N(CCCc1nc3ccccc3[nH]1)C2=O` [Compound 17, 2-[3-(1H-Benzimidazol-2-yl)propyl]-4-methoxy-1H-isoindole-1,3(2H)-dione] showed a melting point of 217 to 218 °C. Also, in data set [1], the inhibition at 3 µM turned out to be 73%; the inhibition at 10 µM amounted to 86%; the midpoint of inhibition, the IC50, lay at 1.001 ± 0.009 µM. In data set [2], the inhibition at 1 µM stood at 16 ± 5%. The inhibition at 1 µM in data set [3] came to 10 ± 3%.

`COc1cccc2c1C(=O)N(CCCCCc1nc3ccccc3[nH]1)C2=O` [Compound 19, 2-[5-(1H-Benzimidazol-2-yl)pentyl]-4-methoxy-1H-isoindole-1,3(2H)-dione] gave a melting point of 108 to 109 °C. In data set [1], the inhibition at 3 µM amounted to 52%, the inhibition at 10 µM came to 75% and the IC50 is 4.31 ± 0.365 µM. Also, the inhibition at 1 µM in data set [2] amounted to 28 ± 2%. For the same compound, in data set [3], the inhibition at 1 µM was found to be 6%.

`O=C1c2ccccc2C(=O)N1CCc1nc2ccccc2[nH]1` [Compound 20, 2-[2-(1H-Benzimidazol-2-yl)ethyl]-1H-isoindole-1,3(2H)-dione] yielded a melting point of 202 to 203 °C. In data set [1], this compound had an inhibition at 3 µM of 0% and an inhibition at 10 µM of 1%. Besides, in data set [2], the inhibition at 1 µM was determined as 26 ± 2%. The inhibition at 1 µM in data set [3] amounted to 36%.
